The source made the active and inactive calls. The rule behind the calls is not given here.
Columns and labels:
JAR [1] = assay: Antiproliferative activity against human JAR cells assessed as cell growth inhibition incubated for 72 hrs by MTT assay; type: functional, cell-based
JAR [2] = assay: Antiproliferative activity against human JAR cells assessed as cell growth inhibition at 10 uM incubated for 72 hrs by MTT assay relative to control; type: functional
MCF7 [3] = assay: Antiproliferative activity against human MCF7 cells assessed as cell growth inhibition at 10 uM incubated for 72 hrs by MTT assay relative to control; type: functional
A549 [4] = assay: Antiproliferative activity against human A549 cells assessed as cell growth inhibition incubated for 72 hrs by MTT assay; type: functional, cell-based; conditions: A549, 72 h
Homo sapiens = species on record: Homo sapiens; assay: Binding affinity to RNase L (unknown origin) expressed in Escherichia coli BL21 (DE3) assessed as thermal stability by measuring melting temperature at 60 uM incubated for 50 mins by NanoDSF analysis
K562 [5] = assay: Antiproliferative activity against human K562 cells assessed as cell growth inhibition incubated for 72 hrs by MTT assay; type: functional, cell-based; conditions: K562, 72 h
A549 [6] = assay: Antiproliferative activity against human A549 cells assessed as cell growth inhibition at 10 uM incubated for 72 hrs by MTT assay relative to control; type: functional
MCF7 [7] = assay: Antiproliferative activity against human MCF7 cells assessed as cell growth inhibition incubated for 72 hrs by MTT assay; type: functional, cell-based; conditions: MCF7, 72 h
JAR [8] = assay: Induction of apoptosis in human JAR cells assessed as fold increase in cleaved PARP level at 10 uM incubated for 24 hrs by Western blot analysis; type: functional
JAR [9] = assay: Inhibition of cell migration in human JAR cells at 5 uM measured after 72 hrs by scratch wound healing assay relative to control; type: functional
JAR [10] = assay: Inhibition of colony formation in human JAR cells measured after 3 days by Giemsa staining based microscopic analysis; type: functional, cell-based; conditions: time 3.0 day, DDE = dose-dependent effect
JAR [11] = assay: Inhibition of colony formation in human JAR cells assessed as cell reproductive death at upto 5 uM measured after 3 days by Giemsa staining based microscopic analysis; type: functional; conditions: time 3.0 day
K562 [12] = assay: Antiproliferative activity against human K562 cells assessed as cell growth inhibition at 10 uM incubated for 72 hrs by MTT assay relative to control; type: functional

In the case of `CCOC(=O)C1=C(Nc2ccccc2)S/C(=C\c2ccc(O)c(OC)c2)C1=O`, the IC50 (JAR [1]) is reported as 8.9 µM, the inhibition at 10 µM (JAR [2]) is reported as 49.7% and the inhibition at 10 µM (MCF7 [3]) is reported as 23.2%. The IC50 (A549 [4]) was > 100 µM, the ΔTm (Homo sapiens) was -1.3 °C and the IC50 (K562 [5]) was 10.4 µM. For the same molecule, the inhibition at 10 µM (A549 [6]) was 24.2% and the IC50 (MCF7 [7]) was > 100 µM.

`CCOC(=O)C1=C(Nc2ccccc2)SC(=C2CCN(C)CC2)C1=O` was tested, and the inhibition at 10 µM (JAR [2]) was < 10%, the inhibition at 10 µM (MCF7 [3]) was < 10% and the inhibition at 10 µM (A549 [6]) was < 10%.

In the case of `CCOC(=O)C1=C(Nc2ccccc2)S/C(=C\C2CCCCC2)C1=O`, the “fold change (FC)” value (JAR [8]) is reported as >1.5, the IC50 (JAR [1]) is reported as 3.7 µM and the inhibition at 10 µM (JAR [2]) is reported as 95.2%. The inhibition at 5 µM (JAR [9]) was 42%, the inhibition at 10 µM (MCF7 [3]) was 45.3% and the inhibition (JAR [10]) was “Dde”. The IC50 (A549 [4]) was 18 µM, the inhibition (JAR [11]) was “Active” and the ΔTm (Homo sapiens) was 1.4 °C. It also gave an IC50 (K562 [5]) of 5.9 µM and an IC50 (MCF7 [7]) of 6.4 µM.

For `CCOC(=O)C1=C(Nc2ccccc2)SC(=C2CCC2)C1=O`, the IC50 (JAR [1]) was 8.4 µM, the inhibition at 10 µM (JAR [2]) was 70.2% and the inhibition at 10 µM (MCF7 [3]) was 40.4%. For the same molecule, the IC50 (A549 [4]) was 17 µM, the ΔTm (Homo sapiens) was 0.7 °C and the IC50 (K562 [5]) was 4.5 µM. The IC50 (MCF7 [7]) was 18.1 µM.

In the case of `CCOC(=O)C1=C(Nc2ccc(OC)cc2)S/C(=C\c2ccc[nH]2)C1=O`, the inhibition at 10 µM (JAR [2]) is reported as 27.6%, the inhibition at 10 µM (MCF7 [3]) is reported as < 10% and the inhibition at 10 µM (A549 [6]) is reported as < 10%.

`CCOC(=O)C1=C(Nc2cccc(C(F)(F)F)c2)S/C(=C\c2ccc[nH]2)C1=O` gave an IC50 (JAR [1]) of 19.7 µM, an inhibition at 10 µM (JAR [2]) of 52.9% and an inhibition at 10 µM (MCF7 [3]) of 22.9%. For the same molecule, the IC50 (K562 [5]) was > 100 µM and the inhibition at 10 µM (A549 [6]) was 22.8%.

In the case of `CCOC(=O)C1=C(Nc2ccccc2)S/C(=C\c2ccc(C(=O)O)cc2)C1=O`, the inhibition at 10 µM (K562 [12]) is reported as 27.5%, the inhibition at 10 µM (JAR [2]) is reported as 16.8% and the inhibition at 10 µM (MCF7 [3]) is reported as < 10%. The inhibition at 10 µM (A549 [6]) was 11.6%.

In the case of `CCOC(=O)C1=C(Nc2ccccc2)S/C(=C\c2cc(OC)c(O)c(OC)c2)C1=O`, the IC50 (JAR [1]) is reported as 17.4 µM, the inhibition at 10 µM (JAR [2]) is reported as 57.5% and the inhibition at 10 µM (MCF7 [3]) is reported as 12.9%. For the same molecule, the IC50 (A549 [4]) was 19.2 µM, the IC50 (K562 [5]) was 31.7 µM and the inhibition at 10 µM (A549 [6]) was 19.2%.

`CCOC(=O)C1=C(Nc2ccccc2)SC(=C2CCCCC2)C1=O` was tested, and the inhibition at 10 µM (K562 [12]) was 18.7%, the inhibition at 10 µM (JAR [2]) was 15.5% and the ΔTm (Homo sapiens) was 0.7 °C.

With `CCOC(=O)C1=C(Nc2ccccc2)S/C(=C\c2cc3cccnc3[nH]2)C1=O` the IC50 (JAR [1]) was 14.4 µM, the inhibition at 10 µM (JAR [2]) was 54.3% and the inhibition at 10 µM (MCF7 [3]) was 18.2%. The IC50 (K562 [5]) was > 100 µM and the inhibition at 10 µM (A549 [6]) was 16.7%.

With `CCOC(=O)C1=C(Nc2ccccc2)S/C(=C\c2cc[nH]c2)C1=O` the inhibition at 10 µM (K562 [12]) was 18.9%, the inhibition at 10 µM (JAR [2]) was 19.5% and the inhibition at 10 µM (MCF7 [3]) was < 10%. For the same molecule, the inhibition at 10 µM (A549 [6]) was < 10%.

With `CCOC(=O)C1=C(Nc2ccccc2)S/C(=C\c2ccccc2C(F)(F)F)C1=O` the inhibition at 10 µM (K562 [12]) was 19.7%, the inhibition at 10 µM (JAR [2]) was 29% and the inhibition at 10 µM (MCF7 [3]) was < 10%. The ΔTm (Homo sapiens) was 0.8 °C and the inhibition at 10 µM (A549 [6]) was < 10%.

With `CCOC(=O)C1=C(Nc2cccc([N+](=O)[O-])c2)S/C(=C\c2ccc[nH]2)C1=O` the IC50 (JAR [1]) was 10.1 µM, the inhibition at 10 µM (JAR [2]) was 57.4% and the inhibition at 10 µM (MCF7 [3]) was 27.4%. It also gave an IC50 (A549 [4]) of 23.9 µM, an IC50 (K562 [5]) of 7.2 µM and an IC50 (MCF7 [7]) of 20.7 µM.

With `CCOC(=O)C1=C(Nc2ccccc2)S/C(=C\c2ccc(OC)c(O)c2)C1=O` the ΔTm (Homo sapiens) was 0.6 °C and the inhibition at 10 µM (A549 [6]) was 11%.

`CCOC(=O)C1=C(Nc2ccccc2)S/C(=C\c2ccc(O)c(O)c2)C1=O` gave an IC50 (JAR [1]) of 6.1 µM, an inhibition at 10 µM (JAR [2]) of 48.7% and an inhibition at 10 µM (MCF7 [3]) of 38.1%. For the same molecule, the IC50 (A549 [4]) was > 100 µM, the IC50 (K562 [5]) was 5.2 µM and the inhibition at 10 µM (A549 [6]) was 30.7%. For the same molecule, the IC50 (MCF7 [7]) was 25.2 µM.

`CCOC(=O)C1=C(Nc2ccc(C(F)(F)F)cc2)S/C(=C\c2ccc[nH]2)C1=O` was tested, and the IC50 (JAR [1]) was 46.8 µM, the inhibition at 10 µM (JAR [2]) was 38.5% and the inhibition at 10 µM (MCF7 [3]) was 19.1%. It also gave an inhibition at 10 µM (A549 [6]) of 30.1%.

Work on `CCOC(=O)C1=C(Nc2ccccc2)SC(=C2CN(C(=O)OC(C)(C)C)C2)C1=O` yielded an IC50 (JAR [1]) of 23.2 µM, an inhibition at 10 µM (MCF7 [3]) of 29.6% and an IC50 (A549 [4]) of 35.8 µM. The ΔTm (Homo sapiens) was 0.5 °C and the IC50 (K562 [5]) was 10.7 µM.

For `CCOC(=O)C1=C(Nc2ccccc2)S/C(=C\c2cccnc2)C1=O`, the inhibition at 10 µM (K562 [12]) was < 10%, the inhibition at 10 µM (JAR [2]) was 32.1% and the inhibition at 10 µM (MCF7 [3]) was < 10%. For the same molecule, the ΔTm (Homo sapiens) was 1 °C and the inhibition at 10 µM (A549 [6]) was < 10%.

`CCOC(=O)C1=C(Nc2ccccc2)S/C(=C\c2ccc(C(F)(F)F)cc2)C1=O` showed an IC50 (JAR [1]) of 5.9 µM, an inhibition at 10 µM (JAR [2]) of 68.7% and an inhibition at 10 µM (MCF7 [3]) of 41.3%. For the same molecule, the IC50 (A549 [4]) was 9.8 µM, the ΔTm (Homo sapiens) was 0.8 °C and the IC50 (K562 [5]) was 7 µM. For the same molecule, the IC50 (MCF7 [7]) was 13.7 µM.

Work on `CCOC(=O)C1=C(Nc2ccccc2)S/C(=C\c2ccc(Br)c(O)c2)C1=O` yielded an inhibition at 10 µM (K562 [12]) of 22%, an inhibition at 10 µM (JAR [2]) of 39.8% and an inhibition at 10 µM (MCF7 [3]) of 16.4%. The inhibition at 10 µM (A549 [6]) was 13.6%.

`CCOC(=O)C1=C(Nc2ccccc2)S/C(=C2\CCN(C(=O)OC(C)(C)C)C2)C1=O` gave an IC50 (JAR [1]) of 37 µM, an inhibition at 10 µM (MCF7 [3]) of 33.8% and an IC50 (A549 [4]) of 47 µM. It also gave a ΔTm (Homo sapiens) of 0.5 °C and an IC50 (K562 [5]) of 11.6 µM.

`CCOC(=O)C1=C(Nc2ccccc2)S/C(=C\c2cc3ccncc3[nH]2)C1=O` showed an inhibition at 10 µM (K562 [12]) of 22.8%, an inhibition at 10 µM (JAR [2]) of 26.3% and an inhibition at 10 µM (MCF7 [3]) of 18.2%. The inhibition at 10 µM (A549 [6]) was 17.1%.

Source: ChEMBL document CHEMBL5131493, “Synthesis and evaluation of RNase L-binding 2-aminothiophenes as anticancer agents” (Bioorg Med Chem, 2022)
